Results reported in article PMC8531085, “Proton Pump Inhibitors Inhibit PHOSPHO1 Activity and Matrix Mineralisation In Vitro” (Calcified Tissue International, 2021).
Several values for one entry are separate records, joined by “and”; a condition that tells them apart may be missing. Identical values can stand only once. Entries after “also recorded” stand apart in the source; their conditions may differ.

How the values were obtained:
recombinant human TNAP = target: T1, recombinant human TNAP (Homo sapiens, UniProt P05186); experiment: TNAP phosphatase assay (BIOMOL Green, pNPP); format: biochemical; conditions: all concentrations tested (0-100 µM)
T1 construct: purchased R&D Systems
T1 sequence (P05186 18-524): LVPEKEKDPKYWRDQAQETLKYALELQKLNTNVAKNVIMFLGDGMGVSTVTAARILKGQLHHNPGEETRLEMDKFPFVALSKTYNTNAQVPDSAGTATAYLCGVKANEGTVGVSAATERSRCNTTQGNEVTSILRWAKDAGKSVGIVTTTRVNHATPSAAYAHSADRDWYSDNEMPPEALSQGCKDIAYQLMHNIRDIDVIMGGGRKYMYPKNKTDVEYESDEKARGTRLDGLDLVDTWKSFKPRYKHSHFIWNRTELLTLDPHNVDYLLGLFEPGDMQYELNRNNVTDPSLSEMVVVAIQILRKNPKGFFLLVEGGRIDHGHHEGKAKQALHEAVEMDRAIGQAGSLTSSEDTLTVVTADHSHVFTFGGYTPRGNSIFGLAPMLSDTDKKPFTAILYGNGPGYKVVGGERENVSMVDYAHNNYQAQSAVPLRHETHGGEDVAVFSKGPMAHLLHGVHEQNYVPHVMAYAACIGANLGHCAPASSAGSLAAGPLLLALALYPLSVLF
Protocol: (§1) Recombinant human PHOSPHO1 (50 ng) was generated as previously described and incubated with varying concentrations of the aforementioned PPIs and H2RAs in experimental assay buffer (20 mM Tris, 2 mM MgCl2 & 25 µg/ml BSA) at 37 °C for 15 min. Using the BIOMOL® Green assay (Enzo, Exeter, UK), standards (0-2 nM) and samples were then incubated with 2.5 mM β-glycerol phosphate for 30 min at 37 °C with gentle agitation. The reaction was stopped using 100 µl BIOMOL® Green and after being left for 30 min at room temperature, the absorbance was read using spectrophotometry at 630 nm. For TNAP, 2 ng recombinant human TNAP (R&D Systems, Abington, UK), was incubated with varying concentrations of the aforementioned PPIs and H2RAs in experimental assay buffer (1 M diethylamine hydrochloride, 1 mM MgCl2 and 20 µM ZnCl2). Using the BIOMOL® Green assay, standards (0-2 nM) and samples were then incubated with 0.5 mM p-nitrophenyl phosphate (pNPP) for 30 min at 37 °C with gentle agitation. The reaction was stopped using 100 µl BIOMOL® Green and after being left for 30 min at room temperature, the absorbance was read using spectrophotometry at 630 nm.

[1] = system: Primary calvarial osteoblasts; experiment: Primary osteoblast matrix mineralisation (Alizarin red, 28 days); format: cell-based, mice
Protocol: Primary calvarial osteoblasts were obtained from 4-day-old wild-type C57Bl/6 mice. Primary osteoblasts were isolated by sequential enzyme digestion of excised calvarial bones using a four-step process as has previously been described [1 mg/ml collagenase type II in Hanks’ balanced salt solution (HBSS) for 10 min; 1 mg/ml collagenase type II in HBSS for 30 min; 4 mM EDTA for 10 min; 1 mg/ml collagenase type II in HBSS for 30 min]. The first digest was discarded and the cells were re-suspended in growth medium consisting of a-MEM (Invitrogen, Paisley, UK) supplemented with 10% (v/v) FBS and 1% gentamycin (Invitrogen). Osteoblasts were seeded at a density of 1 × 10^4 cells/cm^2 and grown to confluency at which point 2 mM β-glycerophosphate and 50 µg/ml ascorbic acid was added along with a PPI (0–50 µM) as described in the results. Media was changed every 2–3 days for the duration of the 28-day experiments. After 28 days, primary cell cultures were fixed in 4% paraformaldehyde for 5 min at room temperature. Cell monolayers were stained with aqueous 2% (w/v) Alizarin red solution for 5 min at room temperature. The bound stain was solubilised in 10% cetylpyridinium chloride and the optical density of the resultant eluted solution measured by spectrophotometry at 570 nm.

[2] = target: T2, Recombinant human PHOSPHO1 (Homo sapiens, UniProt Q8TCT1); experiment: PHOSPHO1 phosphatase assay (BIOMOL Green, β-glycerol phosphate); format: biochemical; conditions: for IC50: recombinant human PHOSPHO1 50 ng, 0-100 µM, 2.5 mM β-glycerol phosphate, read-out: IC50, inhibition of PHOSPHO1 activity; for Inhibition of PHOSPHO1 activity (in words): all concentrations tested (0-100 µM)
T2 construct: made in house
T2 sequence (Q8TCT1 1-267): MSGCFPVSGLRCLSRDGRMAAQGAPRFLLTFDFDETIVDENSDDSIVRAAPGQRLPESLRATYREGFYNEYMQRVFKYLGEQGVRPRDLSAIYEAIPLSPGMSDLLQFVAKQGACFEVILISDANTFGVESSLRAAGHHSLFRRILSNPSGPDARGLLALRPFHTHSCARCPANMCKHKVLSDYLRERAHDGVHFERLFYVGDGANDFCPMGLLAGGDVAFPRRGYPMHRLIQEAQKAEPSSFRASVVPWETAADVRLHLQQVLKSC
Protocol: as §1, with “H2RAs” left out, “μg/ml” for “µg/ml”, “μl” for “µl”, “For TNAP, 2 ng recombinant human TNAP (R&D Systems, Abington, UK), was incubated with varying concentrations of the aforementioned PPIs and H2RAs in experimental assay buffer (1 M diethylamine hydrochloride, 1 mM MgCl2 and 20 µM ZnCl2).” left out

[3] = system: tissue non-specific alkaline phosphatase (TNAP); design: method as in PMID 17227223; conditions: cited from earlier work
developing chick embryos = system: developing chick embryos; design: method as in PMID 20053388; conditions: administration to developing chick embryos; cited from earlier work
osteoblast MV = conditions: cited from earlier work
osteoblasts = system: osteoblasts; design: method as in PMID 23937530; conditions: cited from earlier work
[4] = target: T2, Recombinant human PHOSPHO1; design: method as in PMID 17227223; conditions: non-competitive; cited from earlier work
rodents = system: rodents; design: method as in PMID 11589371, PMID 26229922; conditions: rodents administered the drug; cited from earlier work
healthy subjects = conditions: short-term treatment; cited from earlier work

Row | Inhibition of TNAP activity (in words) (recombinant human TNAP) | IC50 [2] | Compound | Matrix mineralisation (Alizarin red) ([1]; 10 µM) | Inhibition of PHOSPHO1 activity (in words) [2] | Ability of osteoblasts to mineralise their matrix (osteoblasts) | further results
1 | did not inhibit | 19.3 µM | COc1ccnc(C[S+]([O-])c2nc3ccc(OC(F)F)cc3[nH]2)c1OC (centres unmarked) [pantoprazole] | not sufficient to inhibit matrix mineralisation |  |  | Matrix mineralisation (Alizarin red) ([1]; 5 µM): not sufficient to inhibit matrix mineralisation; Matrix mineralisation (Alizarin red) ([1]; 50 µM): significant decrease in matrix mineralisation
2 |  |  | CNC(=C[N+](=O)[O-])NCCSCc1csc(CN(C)C)n1 [nizatidine] |  | no inhibitory effects; also recorded: no inhibition |  | 
3 | did not inhibit | 2.77 µM | Cc1c(OCC(F)(F)F)ccnc1C[S+]([O-])c1nc2ccccc2[nH]1 (centres unmarked) [lansoprazole] | significantly decreased matrix mineralisation |  | decreased the ability of osteoblasts to mineralise their matrix | Effect on TNAP activity [3]: no effect; Mineralisation of leg and wing long bones (developing chick embryos): completely inhibited mineralisation; Matrix mineralisation (Alizarin red) ([1]; 5 µM): significantly decreased matrix mineralisation; Inhibition of osteoblast MV calcification (osteoblast MV): 57%; Mineralisation of MVs isolated from osteoblasts (osteoblast MV): impairs their mineralisation; Inhibition of recombinant human PHOSPHO1 activity [4]: over 70%
4 |  |  | CNC(=C[N+](=O)[O-])NCCSCc1ccc(CN(C)C)o1 [ranitidine] |  | no inhibitory effects; also recorded: no inhibition |  | 
5 | did not inhibit | 0.73 µM and 0.726 µM | COc1ccc2nc([S@@+]([O-])Cc3ncc(C)c(OC)c3C)[nH]c2c1 [esomeprazole] | significantly inhibited matrix mineralisation |  | decreased the ability of osteoblasts to mineralise their matrix | 
6 |  |  | CN/C(=N/CCSCc1nc[nH]c1C)NC#N [cimetidine] |  | no inhibitory effects; also recorded: no inhibition |  | 
7 |  |  | NC(N)=Nc1nc(CSCCC(N)=NS(N)(=O)=O)cs1 [famotidine] |  | no inhibitory effects; also recorded: no inhibition |  | 
8 | did not inhibit | 2.8 µM | COc1ccc2[nH]c([S+]([O-])Cc3ncc(C)c(OC)c3C)nc2c1 (centres unmarked) [omeprazole] | significantly inhibited matrix mineralisation |  | decreased the ability of osteoblasts to mineralise their matrix | Bone mineral content and BMD (rodents): reduced bone mineral content and BMD; Effect on calcium absorption (healthy subjects): not found to have inhibitory effects
